Like-named read-outs stand apart in the source and are kept apart here.
Legend:
HUV-EC-C cells = assay: In Vitro Angiogenesis Assay (tube formation); details: HUV-EC-C cells on ECMatrix, 4 hr; FIGS. 1 and 2
FLT-3 = FLT-3 (Homo sapiens, UniProt P36888); assay: CEREP HTRF kinase selectivity assay; format: biochemical; details: FLT-3, 10 uM
Protocol: (§3) The inhibitory activity of selected compounds of the invention was evaluated against a panel of 45 different kinase enzymes by CEREP, France. […] The % Inhibition was determined by the formula; % Inhibition=100×(1−(experimental value−background value)/(high activity control−background value)).

ERK (P42mapk) = biological target: T1, ERK (P42mapk) (Homo sapiens, UniProt P28482); assay: CEREP HTRF kinase selectivity assay; format: biochemical
T1 construct: CEREP
Protocol: (§1) The inhibitory activity of selected compounds of the invention was evaluated against a panel of 45 different kinase enzymes by CEREP, France. The assays were performed using standard HTRF assay methods as documented by CEREP against the human orthologues of Ab1 kinase, Akt1/PKBa, AMPKa, BMX kinase (Etk), Brk, CaMK2a, CaMK4, CDC2/CDK1 (cycB), CHK1, CHK2, c-Met kinase, CSK, EphB4 kinase, ERKI, ERK2 (P42mapk), FGFR2 kinase, FGFR4 kinase, FLT-1 kinase (VEGFR1), FLT-3 kinase, Fyn kinase, 1GF1R kinase, IRK (InsR), JNK 2, KDR kinase (VEGFR2), Lck kinase, Lyn kinase, MAPKAPK2, MEK1/MAP2K1, p38a kinase, p38d kinase, p38 g kinase, PDGFRb kinase, PDKI, PKA, PKCa, PKCb1, PKCb2, PKCg, Ret kinase, ROCK2, RSK2, Src kinase, Syk, and TRKA (Table 3). The % Inhibition was determined by the formula; % Inhibition=100×(1−(experimental value−background value)/(high activity control−background value)).

Brk = biological target: T2, Brk (Homo sapiens, UniProt Q13882); assay: CEREP HTRF kinase selectivity assay; format: biochemical
T2 construct: CEREP
Protocol: as §1

TRKA = biological target: T3, TRKA (Homo sapiens, UniProt P04629); assay: CEREP HTRF kinase selectivity assay; format: biochemical
T3 construct: CEREP, France (contract panel)
Protocol: as §1

PKCalpha = PKCalpha (Homo sapiens, UniProt P17252); assay: CEREP HTRF kinase selectivity assay; format: biochemical
Protocol: as §1

Abl = biological target: T4, Abl (Homo sapiens, UniProt P00519); assay: CEREP HTRF kinase selectivity assay; format: biochemical
T4 construct: CEREP
Protocol: as §1

MAPKAPK2 = MAPKAPK2 (Homo sapiens, UniProt P49137); assay: CEREP HTRF kinase selectivity assay; format: biochemical; details: MAPKAPK2, 10 uM
Protocol: as §1

Ret = Ret (Homo sapiens, UniProt P07949); assay: CEREP HTRF kinase selectivity assay; format: biochemical
Protocol: as §1

Lyn = Lyn (Homo sapiens, UniProt P07948); assay: CEREP HTRF kinase selectivity assay; format: biochemical
Protocol: as §1

ERK1 = biological target: T5, ERK1 (Homo sapiens, UniProt P27361); assay: CEREP HTRF kinase selectivity assay; format: biochemical; details: ERK1, 10 uM
T5 construct: CEREP
Protocol: as §1

BMX (Etk) = biological target: T6, BMX (Etk) (Homo sapiens, UniProt P51813); assay: CEREP HTRF kinase selectivity assay; format: biochemical
T6 construct: CEREP
Protocol: as §1

MEK1/MAP2K1 = MEK1/MAP2K1 (Homo sapiens, UniProt Q02750); assay: CEREP HTRF kinase selectivity assay; format: biochemical; details: MEK1/MAP2K1, 10 uM
Protocol: as §1

EphB4 = biological target: T7, EphB4 (Homo sapiens, UniProt P54760); assay: CEREP HTRF kinase selectivity assay; format: biochemical; details: EphB4, 10 uM
T7 construct: CEREP
Protocol: as §1

PDK1 = PDK1 (Homo sapiens, UniProt O15530); assay: CEREP HTRF kinase selectivity assay; format: biochemical; details: PDK1, 10 uM
Protocol: as §1

Akt1/PKBalpha = biological target: T8, Akt1/PKBalpha (Homo sapiens, UniProt P31749); assay: CEREP HTRF kinase selectivity assay; format: biochemical
T8 construct: CEREP
Protocol: as §1

p38alpha = p38alpha (Homo sapiens, UniProt Q16539); assay: CEREP HTRF kinase selectivity assay; format: biochemical
Protocol: as §1

PDGFRbeta = PDGFRbeta (Homo sapiens, UniProt P09619); assay: CEREP HTRF kinase selectivity assay; format: biochemical
Protocol: as §1

PKCbeta 1 = PKCbeta 1 (Homo sapiens, UniProt P05771); assay: CEREP HTRF kinase selectivity assay; format: biochemical; details: PKCbeta 1, 10 uM
Protocol: as §1

Src = Src (Homo sapiens, UniProt P12931); assay: CEREP HTRF kinase selectivity assay; format: biochemical
Protocol: as §1

IGF1R = IGF1R (Homo sapiens, UniProt P08069); assay: CEREP HTRF kinase selectivity assay; format: biochemical
Protocol: as §1

PKA = PKA (Homo sapiens, UniProt P17612); assay: CEREP HTRF kinase selectivity assay; format: biochemical
Protocol: as §1

ROCK2 = ROCK2 (Homo sapiens, UniProt O75116); assay: CEREP HTRF kinase selectivity assay; format: biochemical; details: ROCK2, 10 uM
Protocol: as §1

p38delta = p38delta (Homo sapiens, UniProt O15264); assay: CEREP HTRF kinase selectivity assay; format: biochemical
Protocol: as §1

CHK1 = biological target: T9, CHK1 (Homo sapiens, UniProt O14757); assay: CEREP HTRF kinase selectivity assay; format: biochemical; details: CHK1, 10 uM
T9 construct: CEREP
Protocol: as §1

CHK2 = biological target: T10, CHK2 (Homo sapiens, UniProt O96017); assay: CEREP HTRF kinase selectivity assay; format: biochemical; details: CHK2, 10 uM
T10 construct: CEREP
Protocol: as §1

PKCgamma = PKCgamma (Homo sapiens, UniProt P05129); assay: CEREP HTRF kinase selectivity assay; format: biochemical
Protocol: as §1

PKCbeta 2 = PKCbeta 2 (Homo sapiens, UniProt P05771); assay: CEREP HTRF kinase selectivity assay; format: biochemical; details: PKCbeta 2, 10 uM
Protocol: as §1

RSK2 = RSK2 (Homo sapiens, UniProt P51812); assay: CEREP HTRF kinase selectivity assay; format: biochemical; details: RSK2, 10 uM
Protocol: as §1

CSK = biological target: T11, CSK (Homo sapiens, UniProt P41240); assay: CEREP HTRF kinase selectivity assay; format: biochemical
T11 construct: CEREP
Protocol: as §1

FGFR4 = biological target: T12, FGFR4 (Homo sapiens, UniProt P22455); assay: CEREP HTRF kinase selectivity assay; format: biochemical; details: FGFR4, 10 uM
T12 construct: CEREP
Protocol: as §1

CaMK4 = biological target: T13, CaMK4 (Homo sapiens, UniProt Q16566); assay: CEREP HTRF kinase selectivity assay; format: biochemical; details: CaMK4, 10 uM
T13 construct: CEREP
Protocol: as §1

Fyn = Fyn (Homo sapiens, UniProt P06241); assay: CEREP HTRF kinase selectivity assay; format: biochemical
Protocol: as §1

p38gamma = p38gamma (Homo sapiens, UniProt P53778); assay: CEREP HTRF kinase selectivity assay; format: biochemical
Protocol: as §1

c-Met = biological target: T14, c-Met (Homo sapiens, UniProt P08581); assay: CEREP HTRF kinase selectivity assay; format: biochemical
T14 construct: CEREP
Protocol: as §1

Lck = Lck (Homo sapiens, UniProt P06239); assay: CEREP HTRF kinase selectivity assay; format: biochemical
Protocol: as §1

JNK 2 = JNK 2 (Homo sapiens, UniProt P45984); assay: CEREP HTRF kinase selectivity assay; format: biochemical; details: JNK 2, 10 uM
Protocol: as §1

IRK (InsR) = IRK (InsR) (Homo sapiens, UniProt P06213); assay: CEREP HTRF kinase selectivity assay; format: biochemical
Protocol: as §1

CDC2/CDK1 (cycB) = biological target: T15, CDC2/CDK1 (cycB) (Homo sapiens, UniProt P06493); assay: CEREP HTRF kinase selectivity assay; format: biochemical; details: CDC2/CDK1, 10 uM
T15 construct: CEREP
Protocol: as §1

KDR (VEGFR2) = KDR (VEGFR2) (Homo sapiens, UniProt P35968); assay: CEREP HTRF kinase selectivity assay; format: biochemical
Protocol: as §3

AMPKalpha = assay: CEREP HTRF kinase selectivity assay; format: biochemical, human
Protocol: as §1

[1] = tested on: SW620 colon cancer cell line; assay: Cell growth inhibition, Sulforhodamine B assay (SRB); format: cell-based; details: Homo sapiens, SW-620, 120 h, 5 days culture, SRB
In short: (§2)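 Cells were exposed to compound for 5 days, then fixed in situ with ice-cold 10% TCA at 4 °C and stained with sulforhodamine B to estimate total protein mass.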

[2] = tested on: HCC1954 basal breast cancer cell line; assay: as above; format: cell-based; details: Homo sapiens, HCC1954, 120 h, read-out: Cell Line GI50 Range HCC-1954
In short: as §2

[3] = tested on: human mammary epithelial primary cells (HMEC); assay: as above; details: 120 h, read-out: Cell Line GI50 Range HMEC
[4] = tested on: MCF-7 luminal breast cancer cell line; assay: as above; format: cell-based; details: Homo sapiens, MCF7, 120 h; MCF-7 luminal breast cancer cell line; 5 days culture; SRB; read-out: Cell Line GI50 Range MCF-7
In short: as §2

[5] = tested on: MDA-MB-468 basal breast cancer cell line; assay: as above; format: cell-based; details: Homo sapiens, 120 h; MDA-MB-468 basal breast cancer cell line; 5 days culture; SRB; read-out: Cell Line GI50 Range MDA-MB-468
In short: as §2

[6] = tested on: A549 lung cancer cell line; assay: as above; format: cell-based; details: Homo sapiens, 120 h; A549 lung cancer cell line; 5 days culture; SRB; read-out: Cell Line GI50 Range A-549
In short: as §2

Chain of FLT-3 (P36888 27-993): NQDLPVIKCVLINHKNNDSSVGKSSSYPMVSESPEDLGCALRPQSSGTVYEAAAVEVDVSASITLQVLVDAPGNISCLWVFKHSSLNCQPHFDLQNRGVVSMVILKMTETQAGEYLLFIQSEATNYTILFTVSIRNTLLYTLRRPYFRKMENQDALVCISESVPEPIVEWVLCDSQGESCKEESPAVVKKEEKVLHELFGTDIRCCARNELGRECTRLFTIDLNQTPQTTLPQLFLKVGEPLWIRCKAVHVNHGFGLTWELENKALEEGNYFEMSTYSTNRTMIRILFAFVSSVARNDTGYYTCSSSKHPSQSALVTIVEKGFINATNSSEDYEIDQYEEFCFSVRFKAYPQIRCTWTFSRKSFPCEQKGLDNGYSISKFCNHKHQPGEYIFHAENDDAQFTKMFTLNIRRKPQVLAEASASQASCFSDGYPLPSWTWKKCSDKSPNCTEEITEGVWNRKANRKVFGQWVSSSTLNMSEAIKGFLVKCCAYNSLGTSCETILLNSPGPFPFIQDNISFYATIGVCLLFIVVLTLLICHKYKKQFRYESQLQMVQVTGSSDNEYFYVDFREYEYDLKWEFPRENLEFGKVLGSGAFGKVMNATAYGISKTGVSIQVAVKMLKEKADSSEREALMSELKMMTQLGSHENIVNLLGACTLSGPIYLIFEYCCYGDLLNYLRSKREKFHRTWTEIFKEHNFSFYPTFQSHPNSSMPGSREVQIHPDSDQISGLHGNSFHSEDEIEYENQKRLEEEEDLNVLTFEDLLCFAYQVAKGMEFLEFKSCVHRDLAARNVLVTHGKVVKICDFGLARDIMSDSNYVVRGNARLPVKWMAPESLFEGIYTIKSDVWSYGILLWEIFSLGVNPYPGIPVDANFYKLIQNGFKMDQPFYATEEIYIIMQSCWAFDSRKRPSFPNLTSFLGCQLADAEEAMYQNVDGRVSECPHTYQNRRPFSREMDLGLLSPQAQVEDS
Chain of KDR (VEGFR2) (P35968 20-1356): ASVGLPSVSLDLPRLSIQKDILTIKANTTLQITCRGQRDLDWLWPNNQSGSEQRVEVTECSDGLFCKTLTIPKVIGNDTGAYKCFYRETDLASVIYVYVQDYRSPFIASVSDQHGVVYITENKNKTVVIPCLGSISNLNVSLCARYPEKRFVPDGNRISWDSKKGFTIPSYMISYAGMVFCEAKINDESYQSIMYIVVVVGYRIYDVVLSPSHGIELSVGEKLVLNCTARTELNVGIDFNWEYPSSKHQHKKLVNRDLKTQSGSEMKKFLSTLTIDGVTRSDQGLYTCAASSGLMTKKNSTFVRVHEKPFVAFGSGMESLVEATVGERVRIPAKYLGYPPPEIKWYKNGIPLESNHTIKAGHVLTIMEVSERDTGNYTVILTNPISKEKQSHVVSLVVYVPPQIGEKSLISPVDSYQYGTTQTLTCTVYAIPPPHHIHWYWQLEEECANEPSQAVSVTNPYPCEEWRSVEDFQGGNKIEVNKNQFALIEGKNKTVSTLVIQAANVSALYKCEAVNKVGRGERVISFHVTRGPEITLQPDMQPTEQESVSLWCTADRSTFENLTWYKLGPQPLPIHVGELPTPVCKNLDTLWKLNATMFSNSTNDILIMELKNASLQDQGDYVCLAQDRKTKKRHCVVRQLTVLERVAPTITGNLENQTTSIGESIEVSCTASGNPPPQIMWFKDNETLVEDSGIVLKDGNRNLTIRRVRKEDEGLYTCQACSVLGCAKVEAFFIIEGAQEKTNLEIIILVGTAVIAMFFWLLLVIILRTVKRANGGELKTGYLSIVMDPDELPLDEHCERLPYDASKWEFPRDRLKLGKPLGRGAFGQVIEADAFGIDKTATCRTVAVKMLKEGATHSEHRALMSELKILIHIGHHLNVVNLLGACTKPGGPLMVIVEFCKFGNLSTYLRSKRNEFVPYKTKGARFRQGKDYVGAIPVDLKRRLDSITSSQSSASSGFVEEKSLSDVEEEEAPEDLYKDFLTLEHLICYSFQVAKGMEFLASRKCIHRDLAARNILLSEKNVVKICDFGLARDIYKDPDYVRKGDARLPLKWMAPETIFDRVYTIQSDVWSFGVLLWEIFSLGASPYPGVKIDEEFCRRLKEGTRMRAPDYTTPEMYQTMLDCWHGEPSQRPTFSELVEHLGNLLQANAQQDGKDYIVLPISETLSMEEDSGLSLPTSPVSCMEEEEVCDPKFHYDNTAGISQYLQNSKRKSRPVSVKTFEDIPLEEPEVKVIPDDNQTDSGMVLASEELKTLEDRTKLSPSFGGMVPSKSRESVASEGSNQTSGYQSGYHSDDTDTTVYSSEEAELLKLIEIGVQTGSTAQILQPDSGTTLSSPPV
T13 sequence (Q16566 whole entry): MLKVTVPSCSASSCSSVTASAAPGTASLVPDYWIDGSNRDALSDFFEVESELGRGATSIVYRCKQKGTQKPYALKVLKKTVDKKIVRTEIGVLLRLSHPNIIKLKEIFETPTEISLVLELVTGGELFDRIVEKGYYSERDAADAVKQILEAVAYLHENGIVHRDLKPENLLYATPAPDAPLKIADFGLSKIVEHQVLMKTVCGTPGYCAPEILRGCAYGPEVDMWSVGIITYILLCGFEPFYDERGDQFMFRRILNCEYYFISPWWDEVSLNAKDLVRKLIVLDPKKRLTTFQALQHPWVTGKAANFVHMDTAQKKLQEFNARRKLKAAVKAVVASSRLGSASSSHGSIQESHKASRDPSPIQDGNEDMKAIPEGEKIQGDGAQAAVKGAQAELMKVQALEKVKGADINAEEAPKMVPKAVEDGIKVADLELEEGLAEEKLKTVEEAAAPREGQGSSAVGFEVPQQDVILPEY
T7 sequence (P54760 16-987): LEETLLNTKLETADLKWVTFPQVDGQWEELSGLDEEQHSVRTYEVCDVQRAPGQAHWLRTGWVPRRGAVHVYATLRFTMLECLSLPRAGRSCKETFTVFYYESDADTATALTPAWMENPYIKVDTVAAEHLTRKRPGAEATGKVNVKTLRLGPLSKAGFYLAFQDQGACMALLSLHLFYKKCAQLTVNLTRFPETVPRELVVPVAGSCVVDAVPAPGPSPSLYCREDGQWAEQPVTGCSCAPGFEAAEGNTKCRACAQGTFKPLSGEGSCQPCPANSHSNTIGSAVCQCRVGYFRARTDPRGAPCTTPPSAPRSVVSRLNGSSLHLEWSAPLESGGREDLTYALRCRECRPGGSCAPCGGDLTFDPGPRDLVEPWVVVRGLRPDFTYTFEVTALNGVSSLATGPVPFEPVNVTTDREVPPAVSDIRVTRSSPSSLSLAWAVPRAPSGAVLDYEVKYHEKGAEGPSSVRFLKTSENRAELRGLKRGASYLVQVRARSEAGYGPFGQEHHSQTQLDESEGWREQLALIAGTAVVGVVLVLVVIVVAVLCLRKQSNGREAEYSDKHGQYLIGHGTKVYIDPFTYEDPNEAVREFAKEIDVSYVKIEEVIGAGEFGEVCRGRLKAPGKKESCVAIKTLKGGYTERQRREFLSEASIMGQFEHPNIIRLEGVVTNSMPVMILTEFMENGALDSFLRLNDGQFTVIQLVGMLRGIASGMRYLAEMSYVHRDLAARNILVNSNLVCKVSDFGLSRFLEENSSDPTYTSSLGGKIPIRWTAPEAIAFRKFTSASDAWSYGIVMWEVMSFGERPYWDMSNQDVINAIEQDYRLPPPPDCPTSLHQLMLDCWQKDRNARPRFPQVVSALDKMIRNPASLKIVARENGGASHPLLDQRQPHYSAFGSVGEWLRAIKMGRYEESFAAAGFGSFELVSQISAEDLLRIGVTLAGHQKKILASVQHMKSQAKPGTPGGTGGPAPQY
Chain of PDGFRbeta (P09619 33-1106): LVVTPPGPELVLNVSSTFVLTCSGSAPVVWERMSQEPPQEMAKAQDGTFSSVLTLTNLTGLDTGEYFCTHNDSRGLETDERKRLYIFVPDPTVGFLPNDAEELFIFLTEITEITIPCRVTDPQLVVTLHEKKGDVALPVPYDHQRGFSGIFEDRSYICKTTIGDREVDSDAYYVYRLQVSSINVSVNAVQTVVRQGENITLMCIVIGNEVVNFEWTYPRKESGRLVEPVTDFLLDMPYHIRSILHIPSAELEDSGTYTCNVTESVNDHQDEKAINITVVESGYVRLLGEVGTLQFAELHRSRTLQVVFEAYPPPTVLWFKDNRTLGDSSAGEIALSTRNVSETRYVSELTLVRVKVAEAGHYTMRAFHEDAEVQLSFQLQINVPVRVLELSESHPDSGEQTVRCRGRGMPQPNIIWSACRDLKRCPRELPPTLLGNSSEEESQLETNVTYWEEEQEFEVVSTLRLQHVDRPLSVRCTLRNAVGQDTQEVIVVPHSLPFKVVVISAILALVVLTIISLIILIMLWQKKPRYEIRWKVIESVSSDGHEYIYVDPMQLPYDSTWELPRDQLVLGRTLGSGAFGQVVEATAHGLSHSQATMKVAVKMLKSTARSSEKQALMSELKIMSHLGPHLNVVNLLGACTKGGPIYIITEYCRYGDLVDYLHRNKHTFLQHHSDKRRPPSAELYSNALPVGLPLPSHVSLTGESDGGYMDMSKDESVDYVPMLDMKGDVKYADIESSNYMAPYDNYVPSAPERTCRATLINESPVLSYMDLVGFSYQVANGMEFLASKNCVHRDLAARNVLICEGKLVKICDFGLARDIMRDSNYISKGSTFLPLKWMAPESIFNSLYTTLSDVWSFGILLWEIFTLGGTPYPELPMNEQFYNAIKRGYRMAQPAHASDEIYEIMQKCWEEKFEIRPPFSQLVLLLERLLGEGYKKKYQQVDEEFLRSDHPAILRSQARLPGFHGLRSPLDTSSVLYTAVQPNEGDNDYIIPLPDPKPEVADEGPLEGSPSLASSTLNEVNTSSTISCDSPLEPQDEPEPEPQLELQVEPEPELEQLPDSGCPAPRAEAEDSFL

**Q.** What does the source list for `O=C1Nc2ccccc2[C@@]12C[C@@H]2c1ccc2c(/C=C/c3ccncc3)n[nH]c2c1` (racemic) [Example A22, (1R*,2S*)-(E)-2-(3-(2-(pyridin-4-yl)vinyl)-1H-indazol-6-yl)spiro-[cyclo-propane-1,3′-indolin]-2′-one]?
**A.** anti-angiogenic effect (tube formation, % of control tube count) (HUV-EC-C cells): anti-agiogenic effects at submicromolar concentrations; inhibition at 10 µM (FLT-3): 100%; inhibition at 10 µM (ERK (P42mapk)): 11%; inhibition at 10 µM (Brk): 41%; inhibition at 10 µM (TRKA): 100%; inhibition at 10 µM (PKCalpha): 7%; inhibition at 10 µM (Abl): 97%; inhibition at 10 µM (MAPKAPK2): 4%; inhibition at 10 µM (Ret): 99%; inhibition at 10 µM (Lyn): 99%; inhibition at 10 µM (ERK1): 8%; inhibition at 10 µM (BMX (Etk)): 71%; inhibition at 10 µM (MEK1/MAP2K1): 12%; inhibition at 10 µM (EphB4): 99%; inhibition at 10 µM (PDK1): 69%; inhibition at 10 µM (Akt1/PKBalpha): -1%; inhibition at 10 µM (p38alpha): 32%; inhibition at 10 µM (PDGFRbeta): 88%; inhibition at 10 µM (PKCbeta 1): 0%; inhibition at 10 µM (Src): 26%; inhibition at 10 µM (IGF1R): 22%; inhibition at 10 µM (PKA): -6%; inhibition at 10 µM (ROCK2): 88%; inhibition at 10 µM (p38delta): -22%; inhibition at 10 µM (CHK1): 37%; inhibition at 10 µM (CHK2): 4%; inhibition at 10 µM (PKCgamma): 8%; inhibition at 10 µM (PKCbeta 2): 11%; inhibition at 10 µM (RSK2): 48%; inhibition at 10 µM (CSK): 99%; inhibition at 10 µM (FGFR4): 56%; inhibition at 10 µM (CaMK4): -8%; inhibition at 10 µM (Fyn): 87%; inhibition at 10 µM (p38gamma): -15%; inhibition at 10 µM (c-Met): 97%; inhibition at 10 µM (Lck): 97%; inhibition at 10 µM (JNK 2): 32%; inhibition at 10 µM (IRK (InsR)): 21%; inhibition at 10 µM (CDC2/CDK1 (cycB)): 93%; inhibition at 10 µM (KDR (VEGFR2)): 98%

**Q.** `CN(C)Cc1ccc(/C=C/c2n[nH]c3cc([C@@H]4C[C@]45C(=O)Nc4ccccc45)ccc23)cc1` (racemic) [Example A26, (1R*,2R*)-(E)-2-(3-(4-((dimethylamino)methyl)styryl)-1H-indazol-6-yl)spiro[cyclopropane-1,3′-indolin]-2′-one 2,2,2-trifluoroacetate] was tested. Which inhibition at 10 µM (FLT-3) did it give?
**A.** The inhibition at 10 µM was 102%.

**Q.** What about the “% Inhibition @ 10 uM” value (AMPKalpha) of the same compound?
**A.** Its value is 69%.

**Q.** And the inhibition at 10 µM (KDR (VEGFR2))?
**A.** Its inhibition at 10 µM is 58%.

**Q.** And the GI50 ([1]; read-out: Cell Line GI50 Range SW-620, SW620 colon cancer cell line)?
**A.** Its GI50 is 100 to 1000 nM.

**Q.** What about the GI50 [2] of the same compound?
**A.** The GI50 was 1000 to 10000 nM.

**Q.** `COc1ccc2c(c1)[C@@]1(C[C@@H]1c1ccc3c(/C=C/c4ccc(N5CCN(C(C)C)CC5)cc4)n[nH]c3c1)C(=O)N2` (racemic) [Example A189, (1R*,2S*)-(E)-2-(3-(4-(4-isopropylpiperazin-1-yl)styryl)-1H-indazol-6-yl)-5′-methoxyspiro[cyclopropane-1,3′-indolin]-2′-one 2,2,2-trifluoroacetate] was tested. Which GI50 [3] did it give?
**A.** Its GI50 is 1000 to 10000 nM.

**Q.** And the GI50 ([1]; SW620 colon cancer cell line, read-out: Cell Line GI50 Range SW-620)?
**A.** Its GI50 is < 100 nM.

**Q.** What about the GI50 [4] of the same compound?
**A.** The GI50 was < 100 nM.

**Q.** And the GI50 [5]?
**A.** The GI50 was < 100 nM.

**Q.** And the GI50 ([2]; HCC1954 basal breast cancer cell line, 5 days culture, SRB)?
**A.** Its GI50 is < 100 nM.

**Q.** And the GI50 [6]?
**A.** Its GI50 is < 100 nM.

From US8481525B2, “Kinase inhibitors and method of treating cancer with same” (University of Health Network, priority 2009, dated 2013)
